Experimental data from PubChem BioAssay (NCI).
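How tested: cells in 96-well plates exposed to compound for 48 hours at five concentrations. TGI denotes the concentration required for complete inhibition of growth.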

How the values were obtained:
Experiment in all cases: NCI anticancer screen, dose series, 48 h
NCI-H23 lung = system: NCI-H23 lung
HCT-15 colon = system: HCT-15 colon
TK-10 renal = system: TK-10 renal
HCT-116 colon = system: HCT-116 colon
SR leukemia = system: SR leukemia
CAKI-1 renal = system: CAKI-1 renal
SN12C renal = system: SN12C renal
MALME-3M melanoma = system: MALME-3M melanoma
K-562 leukemia = system: K-562 leukemia
SF-268 CNS = system: SF-268 CNS
786-0 renal = system: 786-0 renal
HOP-62 NSCLC = system: HOP-62 NSCLC
LOX IMVI melanoma = system: LOX IMVI melanoma
UACC-62 melanoma = system: UACC-62 melanoma
SNB-75 CNS = system: SNB-75 CNS
NCI-H460 lung = system: NCI-H460 lung
UO-31 renal = system: UO-31 renal
M14 melanoma = system: M14 melanoma
IGROV1 ovarian = system: IGROV1 ovarian
DMS 114 small cell lung = system: DMS 114 small cell lung
SK-OV-3 ovarian = system: SK-OV-3 ovarian
NCI-H226 lung = system: NCI-H226 lung
LXFL 529 NSCLC = system: LXFL 529 NSCLC
COLO 205 colon = system: COLO 205 colon
OVCAR-8 ovarian = system: OVCAR-8 ovarian
KM12 colon = system: KM12 colon
UACC-257 melanoma = system: UACC-257 melanoma
SW-620 colon = system: SW-620 colon
MOLT-4 leukemia = system: MOLT-4 leukemia
A549 NSCLC = system: A549 NSCLC
EKVX NSCLC = system: EKVX NSCLC
M19-MEL melanoma = system: M19-MEL melanoma
SF-295 CNS = system: SF-295 CNS
SK-MEL-2 melanoma = system: SK-MEL-2 melanoma
A498 renal = system: A498 renal
SK-MEL-28 melanoma = system: SK-MEL-28 melanoma
HCC-2998 colon = system: HCC-2998 colon
OVCAR-4 ovarian = system: OVCAR-4 ovarian
DMS 273 small cell lung = system: DMS 273 small cell lung
SK-MEL-5 melanoma = system: SK-MEL-5 melanoma
HL-60(TB) leukemia = system: HL-60(TB) leukemia
OVCAR-3 ovarian = system: OVCAR-3 ovarian
SNB-19 CNS = system: SNB-19 CNS
CCRF-CEM leukemia = system: CCRF-CEM leukemia
DLD-1 colon = system: DLD-1 colon
NCI-H522 lung = system: NCI-H522 lung
RPMI-8226 leukemia = system: RPMI-8226 leukemia
ACHN renal = system: ACHN renal
SF-539 CNS = system: SF-539 CNS
HT29 colon = system: HT29 colon
U251 CNS = system: U251 CNS

Measured: TGI

CCOC(=O)[C@H](Cc1ccccc1)NC(=O)c1nc[nH]c1[N+](=O)[O-]
> 100 µM: all assays above
